Results reported in patent US8133491B1, “Compositions and methods for treatment of hyperplastic disorders” (priority 2009, dated 2012).

What was measured:
[1] = test system: prostate; conditions: rat, in vivo; cited from earlier work
[2] = test system: ventral prostate; test: TUNEL stain for apoptosis in prostate sections; set-up: species or system Sprague-Dawley rats; conditions: rat, in vivo
Experimental: (§1) The fixed prostates were embedded in paraffin and sectioned at a thickness of 4 microns. Sections were stained with hematoxylin and eosin and analyzed for morphology. Immunohistochemical analysis was performed on prostate sections for evidence of apoptosis with TUNEL stain (terminal deoxynucleotidyl-mediated deoxyuridine triphosphate nick end labeling) using a commercially available kit (GenScript Corporation, Piscataway, N.J.), and for cellular proliferation with PCNA stain (proliferating cell nuclear antigen) using a commercially available kit (Invitrogen Corporation, Camarillo, Calif.). A stained slide from each animal was randomly assigned a number in a blind fashion. Under 400× magnification, four random areas of the ventral prostate from each animal were examined and the total numbers of stained and unstained cells were counted in the entire field. This was done for both TUNEL and PCNA stained slides for each animal. The mean number of stained and unstained cells was determined for each animal.

[3] = Body weight and complications after intraprostatic injection; set-up: species or system Sprague-Dawley rats; conditions: rat, in vivo
From the text: Eighteen adult male Sprague-Dawley rats (420-560 g) were used in this study. The animals were housed in the animal care center under controlled lighting conditions (lights on 6 AM-6 PM), with food and water always available. The animals were monitored for behavior, food and water intake, and weight. Subsequent experiments were approved by the University of Toledo's Institutional Animal Care and Use Committee.
(§2) Rats were anesthetized with isoflurane gas. The hair was shaved and the incision region was scrubbed with Betadine. A lower abdominal midline incision was made providing exposure to the bladder and prostate. 0.1 mL of toxin or saline was injected into each right and left ventral lobe using a 30-gauge needle. The abdominal wall and skin were then closed in two layers. After 2 weeks the animals were sacrificed by an overdose of sodium Pentobarbital (200 mg/kg i.p.) The prostates were removed en bloc along with the bladder and urethra. The prostates were then carefully dissected from the bladder neck and urethra, weighed and fixed in 10% phosphate buffered formalin.

[4] = test system: ventral prostate; test: PCNA stain for cellular proliferation in prostate sections; set-up: species or system Sprague-Dawley rats; conditions: rat, in vivo
Experimental: as §1

[5] = test system: prostate; test: Intraprostatic injection in rats: prostate weight / size; set-up: species or system Sprague-Dawley rats; conditions: rat, in vivo
[6] = test system: prostate; test: Histology (hematoxylin and eosin) of injected rat prostates; set-up: species or system Sprague-Dawley rats; conditions: in vivo
Experimental: as §2
The fixed prostates were embedded in paraffin and sectioned at a thickness of 4 microns. Sections were stained with hematoxylin and eosin and analyzed for morphology. […] Under 400× magnification, four random areas of the ventral prostate from each animal were examined and the total numbers of stained and unstained cells were counted in the entire field. […] The mean number of stained and unstained cells was determined for each animal.

## Botulinum toxin type A [BTA]
[1]
  prostatic weight (Doggweiler et al.): decrease in prostatic weight
[2]
  TUNEL Assay # of Apoptotic Cells Mean: 211.1
  number of apoptotic cells, TUNEL staining (in words): significant increase in the number of apoptotic cells
[3]
  2 wks Post-Injection Wt (grams) Mean: 449 grams
  Change in Body Weight Mean: −51.667
  Pre-Injection Wt (grams) Mean: 501 grams
  body weight (in words): significant loss in body weight
[4]
  PCNA Assay # of Proliferating Cells Mean: 26.2
  cellular proliferation, PCNA staining (in words): significant increase in cellular proliferation
[5]
  Prostate Wt (grams) Mean: 2.627 grams
  Prostate Wt /100 g Body Wt Mean: 0.586
  prostate size / weight (in words): did not show a statistically significant decrease in prostatic weight
[6]
  histology of prostate (in words): prostatic atrophy of the glandular component with flattening of the epithelial lining
